# What was measured:
# Assay type in all cases: functional, cell-based
# U-937 [1] = assay: Antiproliferative activity against human U937 cells after 24 hrs by WST-8 assay; conditions: U-937, 24 h
# U-937 [2] = assay: Antiproliferative activity against human U937 cells after 72 hrs by WST-8 assay; conditions: U-937, 72 h
# U-937 [3] = assay: Antiproliferative activity against human U937 cells after 48 hrs by WST-8 assay; conditions: U-937, 48 h
Compound,IC50 (U-937 [1]),IC50 (U-937 [2]),IC50 (U-937 [3])
COc1cc([C@H]2Oc3cc(O)ccc3C(=O)[C@@H]2O)ccc1O [ERYCIBENIN D],> 100 µM,> 100 µM,> 100 µM
COc1ccc([C@@H]2CCc3c(OC)cc(OC)cc3O2)c(OC)c1 [ERYCIBENIN F],> 100 µM,> 100 µM,> 100 µM
COc1ccc2c(c1)O[C@H]1c3ccc(OC)cc3OC[C@@H]21 [HOMOPTEROCARPIN],> 100 µM,> 100 µM,> 100 µM
O=c1cc(-c2ccc(O)c(O)c2)oc2cc(O)cc(O)c12 [LUTEOLIN],36 µM,20 µM,28 µM

# Next, values leading:
IC50 (U-937 [1]),IC50 (U-937 [2]),IC50 (U-937 [3]),Compound
> 100 µM,> 100 µM,> 100 µM,COc1ccc2c(c1)OC[C@@]1(OC)c3cc4c(cc3O[C@@H]21)OCO4 [ERYCIBENIN C]
50 µM,45 µM,44 µM,COc1ccc(-c2coc3cc(O)ccc3c2=O)cc1 [FORMONONETIN]
36 µM,20 µM,28 µM,COc1cc(O)cc2c1C(=O)O[C@@H](C)CCCCCCC2 [LASIODIPLODIN]
